These results are taken from US20240067632A1, “WEE1 Degrading Compounds and Uses Thereof” (Bristol-Myers Squibb Company, priority 2022, published 2024).

Experiment [1] relates to MKN45 cells. As to the kind of experiment: MKN45 cell proliferation assay (Cell-Titer-Glo, 120 h). The conditions noted are these: for EC50: Homo sapiens, MKN-45, 120 h, Cell-Titer-Glo, growth inhibition, read-out: MKN45 Cell Prolif. 120 hr (EC50); for MKN45 Cell Prolif. 120 hr (Ymin-Obs): minimal percent of DMSO control observed in the concentrations tested. In kind it is cell-based. The gist of the method:
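Growth inhibition was read as blank-corrected Cell-Titer-Glo luminescence expressed as percent DMSO control after 120 h at 37 C, 400 cells/well. Compounds tested in triplicate as 10-point half-log series from 1 or 10 uM, 0.1% DMSO; four-parameter fit gave EC50, and lowest observed percent control was reported as Ymin-obs.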

Experiment [2] deals with T1, WEE1 (Homo sapiens, UniProt P30291+Q96SW2).
T1 construct: C-terminal ePL-tagged (DiscoverX, Fremont, CA) full-length WEE1 expression construct; expressed in transfected cells; host or cells: LentiX-HEK293T (Invitrogen), lentiviral transduction; co-expressing GSPT1-GN (G576N, lacking the first 158 amino acids)
Nature of the experiment: WEE1-ePL degradation assay (LentiX-WEE1-ePL-GSPT1-ND cells, InCELL Hunter luminescence, 4 h). In kind it is cell-based. The settings on record: 293T-LentiX WEE1-ePL cells; for 293T-LentiX WEE1-ePL Degradation 4 hr (Ymin): lower limit of the fit (0 = luciferase inhibitor, Ymax = DMSO control); for DC50: read-out: 293T-LentiX WEE1-ePL Degradation 4 hr (EC50). The gist of the method: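 First, compounds were pre-plated as 10-point, 3-fold dilutions (top 1 uM or 10 uM) with DMSO control; next, WEE1-ePL-expressing HEK293T cells were added and held 4 h at 37 °C; finally, InCELL Hunter reagent was applied for 30 min before luminescence reading. A 4PL fit gave EC50 and Ymin.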

Broadly, the EC50 is the concentration at which the effect is half-maximal. Take `CO[C@H]1CC[C@H](Nc2ccc3cc(CN4CC[C@H](Oc5ccc6c(c5)CN(C5CCC(=O)NC5=O)C6=O)C4)ccc3n2)CC1` (stereo partly drawn) [3-(1-oxo-5-{[(3S)-1-[(2-{[(1r,4r)-4-methoxycyclohexyl]amino}quinolin-6-yl)methyl]pyrrolidin-3-yl]oxy}-2,3-dihydro-1H-isoindol-2-yl)piperidine-2,6-dione]: in experiment [1], the EC50 came out at 5.05 nM and the “MKN45 Cell Prolif. 120 hr (Ymin-Obs)” value was 8.26. In experiment [2], the “293T-LentiX WEE1-ePL Degradation 4 hr (Ymin)” value was 32.5 and the DC50 worked out at 6.28 nM.

For the compound `CO[C@H]1CC[C@H](Oc2ccc3cc(CN4CC[C@H](Oc5ccc6c(c5)CN(C5CCC(=O)NC5=O)C6=O)C4)ccc3n2)CC1` (stereo partly drawn) [3-(1-oxo-5-{[(3S)-1-[(2-{[(1r,4r)-4-methoxycyclohexyl]oxy}quinolin-6-yl)methyl]pyrrolidin-3-yl]oxy}-2,3-dihydro-1H-isoindol-2-yl)piperidine-2,6-dione], in experiment [1], the 50% effective concentration (EC50) amounted to 9.05 nM and the “MKN45 Cell Prolif. 120 hr (Ymin-Obs)” value was determined as 8.57. Besides, in experiment [2], the “293T-LentiX WEE1-ePL Degradation 4 hr (Ymin)” value is given as 30.67 and the DC50 was found to be 11.5 nM.

Consider `CO[C@H]1CC[C@@](C)(Nc2ccc3cc(CN4CC[C@H](Oc5ccc6c(c5)CN(C5CCC(=O)NC5=O)C6=O)C4)ccc3n2)CC1` (stereo partly drawn) [3-(1-oxo-5-{[(3S)-1-[(2-{[(1s,4s)-4-methoxy-1-methylcyclohexyl]amino}quinolin-6-yl)methyl]pyrrolidin-3-yl]oxy}-2,3-dihydro-1H-isoindol-2-yl)piperidine-2,6-dione], for which, in experiment [1], the EC50 is 0.882 nM and the “MKN45 Cell Prolif. 120 hr (Ymin-Obs)” value came out at 8.44. Besides, in experiment [2], the “293T-LentiX WEE1-ePL Degradation 4 hr (Ymin)” value turned out to be 26 and the DC50 came out at 3.41 nM.

For the compound `CO[C@H]1CC[C@@H](Nc2ccc3cc(CN4CC[C@H](Oc5ccc6c(c5)CN(C5CCC(=O)NC5=O)C6=O)C4)ccc3n2)CC1` (stereo partly drawn) [3-(1-oxo-5-{[(3S)-1-[(2-{[(1s,4s)-4-methoxycyclohexyl]amino}quinolin-6-yl)methyl]pyrrolidin-3-yl]oxy}-2,3-dihydro-1H-isoindol-2-yl)piperidine-2,6-dione], in experiment [1], the 50% effective concentration (EC50) was determined as 1.04 nM and the “MKN45 Cell Prolif. 120 hr (Ymin-Obs)” value is listed as 6.285. Further, in experiment [2], the “293T-LentiX WEE1-ePL Degradation 4 hr (Ymin)” value turned out to be 29.5 and the DC50 is 6.38 nM.

On to `CO[C@H]1CC[C@@H](Oc2ccc3cc(CN4CC[C@H](Oc5ccc6c(c5)CN(C5CCC(=O)NC5=O)C6=O)C4)ccc3n2)CC1` (stereo partly drawn) [3-(1-oxo-5-{[(3S)-1-[(2-{[(1s,4s)-4-methoxycyclohexyl]oxy}quinolin-6-yl)methyl]pyrrolidin-3-yl]oxy}-2,3-dihydro-1H-isoindol-2-yl)piperidine-2,6-dione], for which, in experiment [1], the half-maximal effective concentration (EC50) was 5.35 nM and the “MKN45 Cell Prolif. 120 hr (Ymin-Obs)” value was 8.79. For the same compound, in experiment [2], the “293T-LentiX WEE1-ePL Degradation 4 hr (Ymin)” value was 31.33 and the DC50 was found to be 4.62 nM.

For the compound `O=C1CCC(N2Cc3cc(O[C@H]4CCN(Cc5ccc6nc(CO[C@@H]7CCOC7)ccc6c5)C4)ccc3C2=O)C(=O)N1` (stereo partly drawn) [3-(1-oxo-5-{[(3S)-1-[(2-{[(3R)-oxolan-3-yloxy]methyl}quinolin-6-yl)methyl]pyrrolidin-3-yl]oxy}-2,3-dihydro-1H-isoindol-2-yl)piperidine-2,6-dione], in experiment [1], the EC50 stood at 2.62 nM and the “MKN45 Cell Prolif. 120 hr (Ymin-Obs)” value is given as 6.56. For the same compound, in experiment [2], the “293T-LentiX WEE1-ePL Degradation 4 hr (Ymin)” value was found to be 30 and the DC50 was found to be 4.51 nM.

For the compound `O=C1CCC(N2Cc3cc(O[C@H]4CCN(Cc5ccc6nc(CO[C@H]7CCOC7)ccc6c5)C4)ccc3C2=O)C(=O)N1` (stereo partly drawn) [3-(1-oxo-5-{[(3S)-1-[(2-{[(3S)-oxolan-3-yloxy]methyl}quinolin-6-yl)methyl]pyrrolidin-3-yl]oxy}-2,3-dihydro-1H-isoindol-2-yl)piperidine-2,6-dione], in experiment [1], the half-maximal effective concentration (EC50) was 3.12 nM and the “MKN45 Cell Prolif. 120 hr (Ymin-Obs)” value came to 7.75. In experiment [2], the “293T-LentiX WEE1-ePL Degradation 4 hr (Ymin)” value is on record as 33 and the DC50 came to 7.04 nM.

As to `O=C1CCC(N2Cc3cc(O[C@H]4CCN(Cc5ccc6c(c5)NC(=O)CO6)C4)ccc3C2=O)C(=O)N1` (stereo partly drawn) [3-(1-oxo-5-{[(3S)-1-[(3-oxo-3,4-dihydro-2H-1,4-benzoxazin-6-yl)methyl]pyrrolidin-3-yl]oxy}-2,3-dihydro-1H-isoindol-2-yl)piperidine-2,6-dione], in experiment [1], the 50% effective concentration (EC50) was greater than 10000 nM and the “MKN45 Cell Prolif. 120 hr (Ymin-Obs)” value came out at 88.425. In experiment [2], the “293T-LentiX WEE1-ePL Degradation 4 hr (Ymin)” value was 70 and the DC50 amounted to 558 nM.

`O=C1CCC(N2Cc3cc(O[C@H]4CCN(Cc5cc(-c6ccccc6)ccn5)C4)ccc3C2=O)C(=O)N1` (stereo partly drawn) [3-(1-oxo-5-{[(3S)-1-[(4-phenylpyridin-2-yl)methyl]pyrrolidin-3-yl]oxy}-2,3-dihydro-1H-isoindol-2-yl)piperidine-2,6-dione]: in experiment [1], the concentration giving a half-maximal response (EC50) was found to be 16.7 nM and the “MKN45 Cell Prolif. 120 hr (Ymin-Obs)” value came to 8.59. Further, in experiment [2], the “293T-LentiX WEE1-ePL Degradation 4 hr (Ymin)” value stood at 34.5 and the DC50 was 5.3 nM.

As to `O=C1CCC(N2Cc3cc(O[C@H]4CCN(Cc5ccc(-c6ccccc6)cn5)C4)ccc3C2=O)C(=O)N1` (stereo partly drawn) [3-(1-oxo-5-{[(3S)-1-[(5-phenylpyridin-2-yl)methyl]pyrrolidin-3-yl]oxy}-2,3-dihydro-1H-isoindol-2-yl)piperidine-2,6-dione], in experiment [1], the EC50 came out at 131 nM and the “MKN45 Cell Prolif. 120 hr (Ymin-Obs)” value worked out at 31.28. In experiment [2], the “293T-LentiX WEE1-ePL Degradation 4 hr (Ymin)” value worked out at 46 and the DC50 turned out to be 7.59 nM.

Regarding `O=C1CCC(N2Cc3cc(O[C@H]4CCN(Cc5cncc(-c6ccccc6)c5)C4)ccc3C2=O)C(=O)N1` (stereo partly drawn) [3-(1-oxo-5-{[(3S)-1-[(5-phenylpyridin-3-yl)methyl]pyrrolidin-3-yl]oxy}-2,3-dihydro-1H-isoindol-2-yl)piperidine-2,6-dione], in experiment [1], the EC50 turned out to be 8.4 nM and the “MKN45 Cell Prolif. 120 hr (Ymin-Obs)” value stood at 7.52. In addition, in experiment [2], the “293T-LentiX WEE1-ePL Degradation 4 hr (Ymin)” value is given as 33 and the DC50 turned out to be 2.17 nM.

Consider `O=C1CCC(N2Cc3cc(O[C@H]4CCN(Cc5ccc6cnncc6c5)C4)ccc3C2=O)C(=O)N1` (stereo partly drawn) [3-(1-oxo-5-{[(3S)-1-[(phthalazin-6-yl)methyl]pyrrolidin-3-yl]oxy}-2,3-dihydro-1H-isoindol-2-yl)piperidine-2,6-dione], for which, in experiment [1], the concentration giving a half-maximal response (EC50) is 883 nM and the “MKN45 Cell Prolif. 120 hr (Ymin-Obs)” value was found to be 16.7. Further, in experiment [2], the “293T-LentiX WEE1-ePL Degradation 4 hr (Ymin)” value came to 38 and the DC50 was determined as 148 nM.

In the case of `O=C1CCC(N2Cc3cc(O[C@H]4CCN(Cc5ncc6ccccc6n5)C4)ccc3C2=O)C(=O)N1` (stereo partly drawn) [3-(1-oxo-5-{[(3S)-1-[(quinazolin-2-yl)methyl]pyrrolidin-3-yl]oxy}-2,3-dihydro-1H-isoindol-2-yl)piperidine-2,6-dione], in experiment [1], the EC50 came out at 4770 nM and the “MKN45 Cell Prolif. 120 hr (Ymin-Obs)” value is on record as 74.28. In experiment [2], the “293T-LentiX WEE1-ePL Degradation 4 hr (Ymin)” value came to 48.23 and the DC50 was 51.9 nM.

Regarding `O=C1CCC(N2Cc3cc(O[C@H]4CCN(Cc5ccc6ncncc6c5)C4)ccc3C2=O)C(=O)N1` (stereo partly drawn) [3-(1-oxo-5-{[(3S)-1-[(quinazolin-6-yl)methyl]pyrrolidin-3-yl]oxy}-2,3-dihydro-1H-isoindol-2-yl)piperidine-2,6-dione], in experiment [1], the half-maximal effective concentration (EC50) turned out to be 284 nM and the “MKN45 Cell Prolif. 120 hr (Ymin-Obs)” value came to 20.44. In experiment [2], the “293T-LentiX WEE1-ePL Degradation 4 hr (Ymin)” value is 36.57 and the DC50 was found to be 57 nM.

As to `O=C1CCC(N2Cc3cc(O[C@H]4CCN(Cc5ccc6ccccc6n5)C4)ccc3C2=O)C(=O)N1` (stereo partly drawn) [3-(1-oxo-5-{[(3S)-1-[(quinolin-2-yl)methyl]pyrrolidin-3-yl]oxy}-2,3-dihydro-1H-isoindol-2-yl)piperidine-2,6-dione], in experiment [1], the EC50 is greater than 10000 nM and the “MKN45 Cell Prolif. 120 hr (Ymin-Obs)” value is reported as 81.45. In experiment [2], the “293T-LentiX WEE1-ePL Degradation 4 hr (Ymin)” value turned out to be 58 and the DC50 came to 25.6 nM.

With `O=C1CCC(N2Cc3cc(O[C@H]4CCN(Cc5ccnc6ccccc56)C4)ccc3C2=O)C(=O)N1` (stereo partly drawn) [3-(1-oxo-5-{[(3S)-1-[(quinolin-4-yl)methyl]pyrrolidin-3-yl]oxy}-2,3-dihydro-1H-isoindol-2-yl)piperidine-2,6-dione], in experiment [1], the 50% effective concentration (EC50) was 56.8 nM and the “MKN45 Cell Prolif. 120 hr (Ymin-Obs)” value is listed as 13.21. Moreover, in experiment [2], the “293T-LentiX WEE1-ePL Degradation 4 hr (Ymin)” value was 33.025 and the DC50 was determined as 23.4 nM.

With `O=C1CCC(N2Cc3cc(O[C@H]4CCN(Cc5cccc6ncccc56)C4)ccc3C2=O)C(=O)N1` (stereo partly drawn) [3-(1-oxo-5-{[(3S)-1-[(quinolin-5-yl)methyl]pyrrolidin-3-yl]oxy}-2,3-dihydro-1H-isoindol-2-yl)piperidine-2,6-dione], in experiment [1], the EC50 is 104 nM and the “MKN45 Cell Prolif. 120 hr (Ymin-Obs)” value came to 19. In experiment [2], the “293T-LentiX WEE1-ePL Degradation 4 hr (Ymin)” value is given as 32.69 and the DC50 came to 14.6 nM.

Consider `O=C1CCC(N2Cc3cc(O[C@H]4CCN(Cc5ccc6ncccc6c5)C4)ccc3C2=O)C(=O)N1` (stereo partly drawn) [3-(1-oxo-5-{[(3S)-1-[(quinolin-6-yl)methyl]pyrrolidin-3-yl]oxy}-2,3-dihydro-1H-isoindol-2-yl)piperidine-2,6-dione], for which, in experiment [1], the half-maximal effective concentration (EC50) was found to be 30.4 nM and the “MKN45 Cell Prolif. 120 hr (Ymin-Obs)” value turned out to be 14.87. In experiment [2], the “293T-LentiX WEE1-ePL Degradation 4 hr (Ymin)” value is recorded as 28.66 and the DC50 turned out to be 3.45 nM.
